Measurements published in PubChem BioAssay AID179 (DTP/NCI, 2004).
pEC50, pIC50: −log10 of the molar value. Values joined by “and” are separate entries in the source; they are usually repeats but may differ in a detail not shown here. Identical values can stand only once. Active and inactive are the calls of the source.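 Rule for the calls: active = compounds giving half or more protection of infected cells from virus-caused growth loss, again on retest; inactive = the rest.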 Where a SMILES comes first, the peptide text is derived from it. [ ]: non-standard residue; d: D form. The star is where a group is joined. Phe(4-NO2) = N[CH](Cc1ccc([N+](=O)[O-])cc1)C(=O)O; Boc = CC(C)(C)OC(=O)*; OtBu = CC(C)(C)O*

System: CEM cells HIV-1 protection, formazan growth assay
Test: NCI AIDS Antiviral Assay
Details: for pIC50: measured here: growth of uninfected CEM cells
Outline: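 Soluble formazan readout of cell growth; CEM cells ± HIV-1; 5 drug concs. ≥50% protection → retest; ≥50% again = moderately active; reproducible 100% = confirmed active.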

Row | SMILES | pEC50 | pIC50 | outcome
1 | O=C(Nc1nc(Cl)nc(Cl)n1)N1CCOCC1 | < 3.70 | < 3.70 | –
2 | Cc1cc2c(cc1Cl)SC(C(=O)c1ccc(Cl)c(Cl)c1)=NS2(=O)=O | – | – | inactive
3 | CSC1=C(C(=O)Nc2ccc(Cl)cc2)C(N)=NC1=O | < 4.00 | 4.13 | –
4 | CCOC(=O)C(O)(NC(=O)NC(O)(C(=O)OCC)C(F)(F)F)C(F)(F)F (stereo unspecified) | < 3.70 | < 3.70 | –
5 | CC(C)C1CC2C(=O)N(c3ccccc3)C(=O)C2c2[nH]c3ccccc3c21 (stereo unspecified) | – | – | inactive
6 | Cc1c2c(cc3c1C(=O)C(=O)C1=C3OCC1C)C(C)(C)CCC2 (stereo unspecified) | – | – | inactive
7 | Cc1ccc(/C=C2\CCCC(C(NO)c3ccc(C)cc3)C2=NO)cc1 (stereo unspecified) | < 5.24 | < 5.24 | –
8 | CC(=O)/C(=C/n1c(=S)sc2ccccc21)C(=O)Nc1ccc([N+](=O)[O-])cc1 | < 3.89 | 4.02 | –
9 | COc1cccc(N2C(=O)[C@H]3CC(C)c4c([nH]c5ccccc45)[C@H]3C2=O)c1 (stereo partly specified) | < 4.45 | < 4.45 | –
10 | O=C(/C(=C1\SS/C(=C(/C(=O)c2ccccc2)c2ccccc2)S1)c1ccccc1)c1ccccc1 | < 3.70 | < 3.70 | –
11 | O=CC1=CCC2c3[nH]c4ccccc4c3CCN2C1 (stereo unspecified) | < 3.43 | 4.38 | –
12 | O=C(C[N+]12CCC(O)C1C(CO)CC2)c1ccc(Br)cc1 (stereo unspecified) | < 3.24 | < 3.24 | –
13 | COc1ccc2oc(=O)c(-c3csc(-c4ccccc4)n3)cc2c1 | – | – | inactive
14 | NC(=O)NC1C(C(N)=O)N(Cc2ccccc2)C(=O)N1Cc1ccccc1 (stereo unspecified) | < 4.01 | < 4.01 | –
15 | CC(=O)OCC1OC(n2c(-c3ccccc3)cc(-c3ccco3)c(C#N)c2=O)C(OC(C)=O)C(OC(C)=O)C1OC(C)=O (stereo unspecified) | < 4.77 | < 4.77 and 4.90 | –
16 | O=C(OCc1ccccc1)N1CCNCCNCC1 | < 3.70 | < 3.70 | –
17 | c1ccc2c(c1)CCN2CCN1CCc2ccccc21 | < 3.70 | 3.84 | –
18 | O=c1cc(N2CCCC2)[nH]c(=O)n1-c1ccccc1 | < 3.70 | < 3.70 | –
19 | CC1=CCCC2C(C1)C(=O)CC(C)C2(C)CC/C(=C/CO)CO (stereo unspecified) | – | – | inactive
20 | CC(=O)OCC1OC(n2c(=S)n(-c3ccc([N+](=O)[O-])cc3)c(=O)c3ccccc32)C(OC(C)=O)C(OC(C)=O)C1OC(C)=O (stereo unspecified) | < 4.53 | < 4.53 | –
21 | CCC(C)[C@H](NC(=O)c1ccccc1S)C(=O)O (stereo partly specified) | 5.07 | 3.96 | –
22 | Nc1ccccc1SSc1ccccc1C(=O)O | 4.45 | 4.38 | –

Row | SMILES | pEC50 | pIC50 | outcome
23 | O=C(Nc1cccc([N+](=O)[O-])c1)/C(=N\NC(=O)c1ccncc1)c1nc2ccc([N+](=O)[O-])cc2[nH]c1=O | < 3.87 | 4.32 | –
24 | COc1ccc(/C=C2\C(=O)N(C)C(=O)c3cc(OC)c(OC)cc32)cc1OC | < 4.00 | 4.29 | –
25 | CC1=C(C(=O)Nc2ccc([N+](=O)[O-])cc2)C(c2cccc([N+](=O)[O-])c2)C(C(=O)Nc2ccc([N+](=O)[O-])cc2)=C(C)N1 | < 5.31 | < 5.31 | –
26 | CC12CC(c3ccccc3N1)C1CC2(C)Nc2ccccc21 | < 4.19 | < 4.19 | –
27 | O=C(O)c1ccccc1C(=O)NC(Cc1ccccc1)(C(=O)O)C(=O)O | < 3.70 | < 3.70 | –
28 | NC(=O)c1nnn(Cc2cc(Cl)c(C(=O)c3ccc(Cl)cc3)c(Cl)c2)c1N | < 3.70 | – | –
29 | COc1cc(NC(=O)CC(C)=O)cc2c(C)cc(=O)n(C)c12 | < 3.70 | 3.93 | –
30 | COc1ccc2c(=O)c(-c3ccc(OC)c(OC)c3OCc3ccccc3)coc2c1 | < 3.70 | 4.16 | –
31 | c1cc2nnc1SCCSCCSc1ccc(nn1)SCCSCCS2 | < 3.70 | < 3.70 | –
32 | Cc1cc(=O)c(C#N)c2c(C#N)c(N)[nH]n12 | < 3.70 | < 3.70 | –
33 | Cc1csc2c(=O)n(C3OC(CO)C(O)C3O)c(=O)[nH]c12 (stereo unspecified) | < 3.70 | < 3.70 | –
34 | c1ccc([P+](CCNCCNCC[P+](c2ccccc2)(c2ccccc2)c2ccccc2)(c2ccccc2)c2ccccc2)cc1 | < 3.45 | 3.63 | –
35 | O=[N+]([O-])c1ccc(CSc2nn(Cc3ccc([N+](=O)[O-])cc3)cc3ncnc2-3)cc1 | < 3.70 | 4.71 | –
36 | CCCCCCCCCCCCCC(=O)OCC(C[As](=O)(O)O)OC(=O)CCCCCCCCCCCCC (stereo unspecified) | < 4.94 | < 4.94 | –
37 | CC(C)(C)N=C(N)NC#N | < 3.70 | < 3.70 | –
38 | CN(NC(=O)Nc1cccc2ccccc12)c1ccccc1 | < 4.61 | < 4.61 | –
39 | CCOP(=O)(OCC)/C(C#N)=C/c1nccn1C | – | – | inactive
40 | O=C(c1ccccc1)c1cccc(C(=O)c2ccccc2)n1 | < 4.18 | < 4.18 | –
41 | CC(=O)N(O)c1ccc(Cl)cc1 | < 3.70 | < 3.70 | –
42 | CCN(CC)CC(=O)Nc1ccc(CO)cc1 | < 3.70 | < 3.70 | –
43 | C[C@H]1Oc2c3c(c4c(c2C(=O)[C@@H]1C)OCC=C4)OCC=C3 | < 3.70 | 4.05 | –
44 | O=C(Nc1cc2c(oc1=O)CCC2)c1cnccn1 | < 4.00 | < 4.00 | –

Row | SMILES | pEC50 | pIC50 | outcome
45 | NC(=O)NNC/C(Cl)=C(\Cl)C(=O)O | < 2.96 | 3.72 | –
46 | CCCCOC(=O)c1ccc(NC(=O)C(C)N(CC)CC)cc1 (stereo unspecified) | < 3.70 | 4.44 | –
47 | O=P1(Oc2ccc(Cl)cc2)OCCS1 (stereo unspecified) | < 3.70 | < 3.70 | –
48 | CN(C(=O)c1ccccc1)c1ccc2c(c1)C(=O)c1ccccc1C2=O | < 4.82 | < 4.82 | –
49 | CCOC1CN(C)C(=Nc2cccc3ccccc23)S1 (stereo unspecified) | 5.31 | 3.83 | –
50 | Cc1cc2c(c(C(N)=O)c1C)-c1cccc(F)c1C2=O | – | – | inactive
51 | C/C(=N/NC(=S)N1CCCCC1)c1ccccc1O | < 3.70 | 4.04 | –
52 | Cn1c(=O)c2nc(-c3ccccc3)nnc2n(CCO)c1=O | < 3.70 | 4.38 | –
53 | CC1CCn2c(=S)[nH]c3cccc(c32)N1 (stereo unspecified) | 4.37 | 3.74 | –
54 | CC(C)CCCC(C)[C@H]1CC[C@H]2[C@@H]3CC[C@H]4C[C@@H](CCC=C(c5cc(Cl)c(O)c(C(=O)OC(C)(C)C)c5)c5cc(Cl)c(O)c(C(=O)OC(C)(C)C)c5)CC[C@]4(C)[C@H]3CC[C@]12C (stereo partly specified) | < 4.30 | < 4.30 | –
55 | CC(=O)NC(CCC(=O)OC(C)(C)C)C(=O)NC(CCC(=O)OC(C)(C)C)C(=O)NC(Cc1ccc([N+](=O)[O-])cc1)C(=O)NC(CCCCNC(=O)OC(C)(C)C)C(=O)NC(CCCCNC(=O)OC(C)(C)C)C(=O)NCC(=O)O (stereo unspecified) (Ac-E(OtBu)E(OtBu)[Phe(4-NO2)]K(Boc)K(Boc)G-OH; configuration not given here) | < 3.70 | < 3.70 | –
56 | COC(=O)CSC(=S)Nc1nnc(NC(=S)SCOC(C)=O)n1C(=S)SCC(=O)OC | < 3.70 | < 3.70 | –
57 | CC1(C)CC2=NOS3=C2C(=NO3)C1c1ccccn1 (stereo unspecified) | < 3.70 | 4.02 | –
58 | CC(=O)CC(c1ccccc1)c1c(O)c2ccccc2oc1=O (stereo unspecified) | < 3.09 | 3.43 | –
59 | O=C1c2cccc3cccc(c23)C(=O)N1O | < 4.00 | 5.13 | –
60 | CC1(C)O[C@H](C(=O)O)[C@@H](C(=O)O)O1 | < 3.70 | < 3.70 | –
61 | CCOc1ccc(N=c2ssc(SC)c2-c2ccccc2)cc1 | < 3.70 | 4.21 | –
62 | COCCCCCCCCCCCC(=O)OCC1OC(n2cc(C)c(=O)[nH]c2=O)CC1F (stereo unspecified) | 7.95 | 6.70 | –
63 | CC(=O)N(c1ccccc1)[Si](C)(C)C | – | – | inactive
64 | COc1ccccc1C1(c2c(OC)c(=O)c2=O)SCCCS1 | < 3.70 | < 3.70 | –
65 | CC1CC/C(=C\c2ccc(N(C)C)cc2)C(=O)/C1=C/c1ccc(N(C)C)cc1 (stereo unspecified) | < 4.00 | 4.22 | –
66 | NC1CC(=O)c2c(Cl)sc(Cl)c21 (stereo unspecified) | < 3.70 | 5.46 | –

Row | SMILES | pEC50 | pIC50 | outcome
67 | CCOC(=O)C1C(=O)CC(C)(O)C(C(=O)OCC)C1c1ccc(O)c(OC)c1 (stereo unspecified) | < 3.70 | < 3.70 | –
68 | CC1CCCN2C(=O)CN(CCc3ccccc3)CC(=O)N12 (stereo unspecified) | – | – | inactive
69 | CCCCCCCCCc1cc(=O)c2ccc(OCc3ccccc3)cc2o1 | < 5.56 | < 5.56 | –
70 | CCCCNc1nc2ccccc2c2c1ncn2CC(C)C | < 3.70 | 4.70 | –
71 | Cn1c(N)c(N=O)c(=O)n(C)c1=O | < 3.70 | < 3.70 | –
72 | O=c1oc2c(ccc3c(O)cccc32)c2c1CCCC2 | < 3.70 | < 3.70 | –
73 | Cc1c(O)c2cccc(-c3ccccc3)c2oc1=O | < 3.70 | 3.88 | –
74 | Cc1ccc2nc(-c3ccccc3[N+](=O)[O-])[nH]c2c1 | < 3.57 | 4.24 | –
75 | COC1/C=C/OC2(C)Oc3c(C)c(O)c4c(O)c(cc(OCC(=O)N5CCCCCC5)c4c3C2=O)NC(=O)/C(C)=C\C=C\C(C)C(O)C(C)C(O)C(C)C(OC(C)=O)C1C (stereo unspecified) | < 3.70 | 4.40 | –
76 | S=P(N1CCOCC1)(N1CC1)N1CC1 | < 3.70 | 5.28 | –
77 | O=C1c2cccc3cc([N+](=O)[O-])cc(c23)C(=O)N1CCCN(CCO)CCO | – | – | inactive
78 | COC(OC)C(O)C1OC=CC1n1cnc2c(N)ncnc21 (stereo unspecified) | < 3.70 | < 3.70 | –
79 | C=CCN1CCC23c4c5ccc(O)c4OC2C(=NN=C2CCC4(O)C6Cc7ccc(O)c8c7C4(CCN6CC=C)C2O8)CCC3(O)C1C5 (stereo unspecified) | < 3.70 | 4.98 | –
80 | S=c1s[nH]c2c1CCC2 | < 3.97 | 4.11 | –
81 | CN1C(=O)CC(Sc2ccccc2)c2cc(Cl)ccc21 (stereo unspecified) | < 3.70 | 4.80 | –
82 | COc1csc([C@H]2CCC3[C@@H]4CC=C5C[C@@H](OC(=O)CCC(=O)O)CC[C@]5(C)C4CC[C@@]32C)n1 (stereo partly specified) | < 4.29 | 4.49 | –
83 | [O-]c1on[n+]2c1CSC2 | < 2.76 | < 2.76 | –
84 | O=C(N/N=C\c1ccc([N+](=O)[O-])o1)c1ccncc1 | < 3.70 | 4.64 | –
85 | COc1ccc(-c2c3nc(c(-c4ccc(OC)cc4)c4[n-]c(c(-c5ccc(OC)cc5)c5nc(c(-c6ccc(OC)cc6)c6[n-]c2c2ccccc62)-c2ccccc2-5)c2ccccc42)-c2ccccc2-3)cc1.[Zn+2] | < 4.30 | < 4.30 | –
86 | NC(=O)c1oc([N+](=O)[O-])c(-c2ccccc2)c1-c1ccccc1 | < 3.70 | 4.82 | –
